Laboratory results as given in patent US20200071310A1, “N-ARYL PYRAZOLES AS NRF2 REGULATORS” (GLAXOSMITHKLINE INTELLECTUAL PROPERTY DEVELOPMENT LIMITED, priority 2016, published 2020).

Columns and labels:
[1] = test system: NQO1 specific enzyme activity in BEAS-2B cells; experiment: BEAS-2B NQO1 MTT Assay; type: cell-based; conditions: Homo sapiens; NQO1 specific activity induction, BEAS-2B cells, 48 hours; read-out: EC50
Summary of the method: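 BEAS-2B cells plated overnight, treated with compound for 48 h at 37° C, then lysed; NQO1 activity measured kinetically by MTT cocktail at 570 nm over 30 min, with lysate aliquot for Cell Titer Glo. pEC50 from 3-parameter fit of ΔOD/min versus log concentration.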

[2] = biological target: T1, full length Keap1 protein / full length NRF2 protein (Homo sapiens, UniProt Q14145); experiment: NRF2-Keap1 TR-FRET Low Protein Assay; type: binding
T1 construct: full length NRF2 protein and full length Keap1 protein (Keap1 exists a dimer) are used; His
T1 sequence (Q14145 whole entry): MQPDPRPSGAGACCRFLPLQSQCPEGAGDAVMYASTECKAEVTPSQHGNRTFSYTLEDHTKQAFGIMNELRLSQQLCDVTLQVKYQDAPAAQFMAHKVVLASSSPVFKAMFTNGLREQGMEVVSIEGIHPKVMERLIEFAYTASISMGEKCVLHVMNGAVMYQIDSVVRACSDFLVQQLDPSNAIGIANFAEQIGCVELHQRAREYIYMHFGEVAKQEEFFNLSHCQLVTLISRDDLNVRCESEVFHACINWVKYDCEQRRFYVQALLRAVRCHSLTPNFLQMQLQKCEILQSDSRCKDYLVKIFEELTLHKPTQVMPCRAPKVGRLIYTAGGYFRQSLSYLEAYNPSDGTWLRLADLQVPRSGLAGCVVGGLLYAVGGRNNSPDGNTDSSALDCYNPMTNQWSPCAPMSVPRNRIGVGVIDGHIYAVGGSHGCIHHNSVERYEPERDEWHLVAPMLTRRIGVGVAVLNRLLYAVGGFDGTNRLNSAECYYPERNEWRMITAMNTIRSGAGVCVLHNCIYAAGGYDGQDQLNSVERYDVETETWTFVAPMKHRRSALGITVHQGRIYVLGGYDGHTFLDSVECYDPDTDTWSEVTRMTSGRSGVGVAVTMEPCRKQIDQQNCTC
Excerpt: In the NRF2-Keap1 TR-FRET (time-resolved fluorescence resonance energy transfer) low protein assay, full length NRF2 protein and full length Keap1 protein (Keap1 exists a dimer) are used. The assay detects a compound's ability to displace the binding of Keap1 FlagHis with biotinylated Avi-NRF2 protein. Biotin-NRF2 binds to streptavidin-europium (a component of the detection mix) and Keap1 FlagHis is recognized by anti-Flag APC (allophycocyanin) antibody (also a component of the detection mix). If binding occurs between the two proteins, there will be an energy transfer from the Eu+3 (donor) at 615 nm to the APC (acceptor) at 665 nm. A potential NRF2 inhibitor will cause a reduction in the TR-FRET signal by interfering with the binding of Keap1 to NRF2.
Ten nanoliters of 100× compound dose response curves (serial 3-fold dilutions) in DMSO were stamped using an Echo liquid handling system (Labcyte) into 384-well, low volume, black assay plates (Greiner, #784076), with DMSO in columns 6 and 18. An additional 90 nl DMSO was added to each well, to bring the total volume to 100 nl per well. The top concentration of compound was located in columns 1 and 13, with the serial dilutions going across the row. All reagents were diluted in assay buffer (50 mM Tris, pH 8.0, 5 mM MgCl2, 100 mM NaCl, 0.005% BSA, 1 mM DTT, and 2 mM CHAPS. The BSA, DTT, and CHAPS were added to the assay buffer on the day of assay. Using a Multidrop Combi (Thermo Electron Corporation) equipped with a metal tip dispenser, 5 ul of 1.25 nM Keap1 FlagHis protein was added to all wells of the compound plate, with the exception of the wells in column 18. Wells in column 18 received 5 ul of assay buffer instead. Plates were centrifuged at 500 rpm for 1 minute, covered with a plate lid, and incubated at 37° C. for 2.25 hours. Plates were then removed from the incubator and allowed to cool to RT for 15 minutes. Five microliters of 2.5 nM biotin-NRF2 protein was then added to all wells of the plates and the plates were spun at 500 rpm for 1 minute, followed by incubating at 4° C. for 1.25 hours. The plates were then allowed to warm to RT for 15 minutes, followed by the addition of 10 ul of detection mix (1 nM Streptavidin Eu+W1024 and 5 ug/ml mouse anti-DYKDDDDK IgG conjugated to SureLight APC antibody; both from Columbia Biosciences) to all wells. Plates were spun at 500 rpm for 1 minute, incubated for 1 hour at RT, and read on an Envision plate reader using a 320 nm excitation filter and 615 nm and 665 nm emission filters. Compound response (% inhibition) and potency (pIC50) were calculated based on the ratio of the two emissions (665 nm/615 nm) and then the transformed data was normalized against controls in the assay (control 1=1% DMSO in the presence of NRF2 and Keap1 protein and control 2=1% DMSO in the presence of only the NRF2 protein). Data analysis was handled using the software package Abase XE (Surrey, United Kingdom). The % inhibition values were calculated from the ratio (transformed) data by the equation:
100−(100*(compound response−average control 2)/(average control 1−average control2)).
For calculation of pIC50s, Abase XE used a four parameter equation.
IC50s<10 nM (+++++), IC50s 10-100 nM (++++), IC50s 100 nM-1 uM (+++), IC50s 1-10 uM (++). and IC50s 10 uM-100 uM (+), IC50s>100 uM (−), or were not determined (ND).

| Compound | EC50 [1] [nM] | EC50 [2] [nM] |
| --- | --- | --- |
| COc1ccccc1S(=O)(=O)N(Cc1cccc(-n2ncc(C(=O)O)c2[C@@H]2C[C@H]2c2cn(C)nn2)c1)C1CC1 (racemic) [Example 53, 1-(3-((N-cyclopropyl-2-methoxyphenylsulfonamido)methyl)phenyl)-5-((trans)-2-(1-methyl-1H-1,2,3-triazol-4-yl)cyclopropyl)-1H-pyrazole-4-carboxylic acid] | 100 to 1000 | 10000 to 100000 |
| CN(Cc1cccc(-n2ncc(C(=O)O)c2[C@@H]2C[C@H]2c2cn(C)nn2)c1)S(=O)(=O)c1ccccc1OC(F)(F)F (racemic) [Example 46, 5-((trans)-2-(1-methyl-1H-1,2,3-triazol-4-yl)cyclopropyl)-1-(3-((N-methyl-2-(trifluoromethoxy)phenylsulfonamido)methyl)phenyl)-1H-pyrazole-4-carboxylic acid] | 1000 to 10000 | 1000 to 10000 |
| Cn1cc([C@@H]2C[C@H]2c2c(C(=O)O)cnn2-c2cccc(CN3Cc4ccccc4CC(C)(C)C3)c2)nn1 (racemic) [Example 7] | 100 to 1000 | 100 to 1000 |
| COc1ccc(Cl)cc1S(=O)(=O)N(C)Cc1cccc(-n2ncc(C(=O)O)c2[C@@H]2C[C@H]2c2cn(C)nn2)c1 (racemic) [Example 40, 1-(3-((5-chloro-2-methoxy-N-methylphenyl-sulfonamido)-methyl)phenyl)-5-((trans)-2-(1-methyl-1H-1,2,3-triazol-4-yl)cyclo-propyl)-1H-pyrazole-4-carboxylic acid] | 1000 to 10000 | 1000 to 10000 |
| CN(Cc1cccc(-n2ncc(C(=O)O)c2[C@@H]2C[C@H]2c2cn(C)nn2)c1)S(=O)(=O)c1c(Cl)cccc1C(F)(F)F (racemic) [Example 41, 1-(3-((2-chloro-N-methyl-6-(trifluoro-methyl)phenyl-sulfonamido)-methyl)phenyl)-5-((trans)-2-(1-methyl-1H-1,2,3-triazol-4-yl)cyclo-propyl)-1H-pyrazole-4-carboxylic acid] | 1000 to 10000 | 1000 to 10000 |
| Cn1cc([C@@H]2C[C@H]2c2c(C(=O)O)cnn2-c2cccc(CN3CC(C)(C)Oc4ccc(F)cc4S3(=O)=O)c2)nn1 (racemic) [Example 5] | 1000 to 10000 | 10 to 100 |
| CCCCCCN(Cc1cccc(-n2ncc(C(=O)O)c2[C@@H]2C[C@H]2c2cn(C)nn2)c1)S(=O)(=O)c1ccccc1Oc1ccccc1 (racemic) [Example 49, 1-(3-((N-hexyl-2-phenoxyphenylsulfonamido)methyl)phenyl)-5-((trans)-2-(1-methyl-1H-1,2,3-triazol-4-yl)cyclopropyl)-1H-pyrazole-4-carboxylic acid] | 100 to 1000 | 1000 to 10000 |
| CN(Cc1cccc(-n2ncc(C(=O)O)c2[C@@H]2C[C@H]2c2cn(C)nn2)c1)S(=O)(=O)c1ccccc1 (racemic) [Example 48, 5-((trans)-2-(1-methyl-1H-1,2,3-triazol-4-yl)cyclopropyl)-1-(3-((N-methylphenylsulfonamido)methyl)phenyl)-1H-pyrazole-4-carboxylic acid] | 1000 to 10000 | 1000 to 10000 |
| CCCCCCN(Cc1cccc(-n2ncc(C(=O)O)c2[C@@H]2C[C@H]2c2cn(C)nn2)c1)S(=O)(=O)c1cccc(-c2ccccc2)c1 (racemic) [Example 34, 1-(3-((N-hexyl-[1,1′-biphenyl]-3-ylsulfonamido)methyl)phenyl)-5-((trans)-2-(1-methyl-1H-1,2,3-triazol-4-yl)cyclopropyl)-1H-pyrazole-4-carboxylic acid] | 10 to 100 | 10 to 100 |
| CC[C@@H]1Cc2ccccc2CN(Cc2cccc(-n3ncc(C(=O)O)c3[C@@H]3C[C@H]3c3cn(C)nn3)c2)C1 [Example 10] | 1000 to 10000 | 100 to 1000 |
| Cn1cc([C@@H]2C[C@H]2c2c(C(=O)O)cnn2-c2cccc(CN3Cc4cc(Br)ccc4OC(C)(C)C3)c2)nn1 (racemic) [Example 13] | 100 to 1000 | 10 to 100 |
| CC[C@H]1Cc2ccccc2CN(Cc2cccc(-n3ncc(C(=O)O)c3[C@@H]3C[C@H]3c3cn(C)nn3)c2)C1 [Example 11] | 1000 to 10000 | 100 to 1000 |
